Data set [1] has as its system MGC-803. In words: Induction of apoptosis in human MGC-803 cells assessed as viable cells at 8 uM incubated for 36 hrs by annexin V-FITC based flow cytometry analysis (reference value: 94.51 %). It is filed as functional. To be noted: read-out: Activity. (In general: In flow cytometry, cells or beads pass a laser one at a time.)
Data set [2] has as its system MGC-803. The data set can be described thus: Inhibition of PI3K signalling pathway in human MGC-803 cells assessed as reduction in pAKT level at 2 to 8 uM by Western blotting analysis. It is filed as cell-based. To be noted: dose 2-8 µM.
The test system of data set [3] is MGC-803. The data set can be described thus: Induction of apoptosis in human MGC-803 cells assessed as late apoptotic cells at 8 uM incubated for 36 hrs by annexin V-FITC based flow cytometry analysis (reference value: 2.61 %). It is filed as functional.
Data set [4] is described as follows: AUC (0 to infinitive) in Sprague-Dawley rat at 10 mg/kg, po measured after 24 hrs. In kind it is ADME, organism-based. On the set-up: dose 10 mg/kg, time 24 hrs, route po. To be noted: in vivo.
Data set [5] deals with MGC-803. In words: Induction of apoptosis in human MGC-803 cells assessed as late apoptotic cells at 4 uM incubated for 36 hrs by annexin V-FITC based flow cytometry analysis (reference value: 2.61 %). It is filed as functional.
Data set [6] concerns MGC-803. In words: Induction of apoptosis in human MGC-803 cells assessed as early apoptotic cells at 8 uM incubated for 36 hrs by annexin V-FITC based flow cytometry analysis (reference value: 2.49 %). It is filed as functional.
The subject of data set [7] is HepG2. In words: Antiproliferative activity against human HepG2 cells assessed as inhibition of cell growth incubated for 72 hrs by CCK8 assay. It is filed as functional, cell-based. The settings on record: HepG2, 72 h. (Tetrazolium dyes change colour on reduction, which living cells bring about.)
Data set [8] has as its target T1, Phosphatidylinositol 4,5-bisphosphate 3-kinase catalytic subunit delta isoform (Homo sapiens, UniProt O00329).
T1 sequence (O00329 whole entry): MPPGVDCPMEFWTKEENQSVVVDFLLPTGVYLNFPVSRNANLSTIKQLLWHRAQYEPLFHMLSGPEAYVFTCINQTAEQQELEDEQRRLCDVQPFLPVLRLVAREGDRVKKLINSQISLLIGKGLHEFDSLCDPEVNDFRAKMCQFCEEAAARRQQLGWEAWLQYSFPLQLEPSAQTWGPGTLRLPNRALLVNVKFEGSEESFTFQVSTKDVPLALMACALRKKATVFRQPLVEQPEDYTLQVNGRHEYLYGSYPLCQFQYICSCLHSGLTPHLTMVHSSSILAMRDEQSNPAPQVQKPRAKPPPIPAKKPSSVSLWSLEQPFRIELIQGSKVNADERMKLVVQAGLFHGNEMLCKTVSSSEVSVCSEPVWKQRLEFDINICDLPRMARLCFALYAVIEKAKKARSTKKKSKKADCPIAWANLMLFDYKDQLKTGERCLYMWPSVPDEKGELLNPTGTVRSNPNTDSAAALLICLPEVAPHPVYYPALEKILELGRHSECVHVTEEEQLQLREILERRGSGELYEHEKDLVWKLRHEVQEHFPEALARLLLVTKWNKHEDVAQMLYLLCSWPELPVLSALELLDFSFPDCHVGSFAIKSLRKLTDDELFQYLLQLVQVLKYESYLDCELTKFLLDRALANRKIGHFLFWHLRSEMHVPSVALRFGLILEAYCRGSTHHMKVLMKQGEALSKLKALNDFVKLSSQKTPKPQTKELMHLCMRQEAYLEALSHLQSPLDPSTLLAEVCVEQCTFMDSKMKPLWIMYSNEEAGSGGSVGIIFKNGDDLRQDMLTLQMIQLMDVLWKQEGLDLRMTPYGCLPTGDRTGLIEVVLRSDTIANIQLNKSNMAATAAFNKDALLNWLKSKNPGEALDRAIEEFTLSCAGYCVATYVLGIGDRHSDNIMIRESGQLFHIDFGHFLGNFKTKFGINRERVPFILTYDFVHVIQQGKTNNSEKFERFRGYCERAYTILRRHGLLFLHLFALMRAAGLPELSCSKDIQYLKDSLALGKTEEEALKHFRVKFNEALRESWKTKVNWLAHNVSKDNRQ
The data set can be described thus: Inhibition of PI3Kdelta (unknown origin) in presence of [33P]-ATP incubated for 2 hrs by hotspot kinase assay.

Data set [9] concerns MGC-803. The data set can be described thus: Induction of apoptosis in human MGC-803 cells assessed as viable cells at 4 uM incubated for 36 hrs by annexin V-FITC based flow cytometry analysis (reference value: 94.51 %). It is filed as functional. To be noted: read-out: Activity.
The test system of data set [10] is MGC-803. In words: Antiproliferative activity against human MGC-803 cells assessed as inhibition of cell growth incubated for 72 hrs by CCK8 assay. It is filed as functional, cell-based. To be noted: MGC-803, 72 h.
Data set [11] has as its system MOLT-4. In words: Antiproliferative activity against human MOLT-4 cells assessed as inhibition of cell growth incubated for 72 hrs by CCK8 assay. In kind it is functional, cell-based. To be noted: MOLT-4, 72 h.
Data set [12] is described as follows: Half life in Sprague-Dawley rat at 10 mg/kg, po measured after 24 hrs. It is filed as ADME, organism-based. To be noted: in vivo.
Data set [13] deals with MGC-803. The data set can be described thus: Antimetastatic activity against human MGC-803 cells assessed as […] of E-cadherin expression in at 2 to 8 uM by Western blot analysis. In kind it is functional, cell-based. The settings on record: dose 2-8 µM. For orientation: In western blotting, separated proteins are transferred to a membrane and probed.

We go through one compound from ChEMBL document CHEMBL5143740, “Discovery of Novel Phosphoinositide-3-Kinase α Inhibitors with High Selectivity, Excellent Bioavailability, and Long-Acting Efficacy for Gastric Cancer” (J Med Chem, 2022).

SMILES strings stand for the structures. pIC50: −log10 of the molar value. Calls of active or inactive are those of the source. No cut-off for these calls is given here.

The term AUC(0-inf) denotes the area under the concentration-time curve extrapolated to infinity. Broadly, the pIC50 is the negative decadic logarithm of the IC50, by convention in mol/L. The term half-life denotes the time in which the quantity being followed falls by half. The low end stands for rapid decline, the high end for slow decline.

`Nc1nc2cc(-c3nc(N4CCOCC4)nc(N4CCOCC4)n3)ccc2o1`: in data set [1], the viability at 8 µM came to 37.2%. Besides, the inhibition result in [2] and in data set [13] was “Active” throughout. Moreover, the Activity turned out to be 3.81% in data set [3], 5.01% in data set [5] and 57.88% in [6]. Moreover, in [4], the area under the curve AUC(0-inf) amounted to 38100 ng·h/mL. The negative logarithm of the IC50 (pIC50) in data set [7] is 6.37; in [8] it was 6.82; in [10], 6.37; in data set [11], 6.37. Besides, the viability at 4 µM in data set [9] came out at 62.6%. In data set [12], this compound registered a half-life greater than 10 h.
